Data from paper PMC11982498 (Redox Biology, 2025).
Several values for one entry are separate records, joined by “and”; a condition that tells them apart may be missing. Identical values can stand only once.

Tests used:
[1] = biological target: T1, Aβ1-42 (Homo sapiens, UniProt P05067); test: Circular dichroism of Aβ1-42 secondary structure; format: biochemical; settings: 20 μM compound, 72 h
T1 construct: Aβ1-42 was purchased from Gill Biochemicals Ltd (Shanghai, China); purchased Gill Biochemicals Ltd (Shanghai, China)
Protocol: (§1) The circular dichroism (CD) experiment was performed to investigate the effect of B14 (20 μM) or Curcumin (20 μM) on the change of Aβ1-42 secondary structure. The Aβ1-42 solutions (100 μM) were co-incubated with B14 (20 μM) or Curcumin (20 μM) at 37 °C for 72h. Ellipticity changes of Aβ1-42 were monitored employing a Chirascan CD spectropolarimeter (Chirascan, England).
as §1, with “Circular dichroism” for “The circular dichroism”, “μM) and” for “μM) or”, “spectropolarimeter (Applied Photophysics, UK).” for “spectropolarimeter (Chirascan, England).”

[2] = test system: APP/PS1 transgenic mice; test: Histopathological examination (HE) of vital organs; settings: mouse, in vivo
Text: (§2) Five months old male APP/PS1 mice, weighing 25–33 g, were purchased from Guangdong Medical Laboratory Animal Center and housed in the Laboratory Animal Center of Sun Yat-sen University (Guangzhou, China) for experimentation. All procedures were approved by the Animal Care and Use Committee of Sun Yat-sen University and complied with legal requirements and national guidelines for the care and maintenance of laboratory animals (Approval No. SYSU-IACUC-2024-002032). The mice were housed in a specific pathogen-free environment with a controlled temperature of 22 ± 1 °C and a 12-h dark/light cycle. The mice were fed with a standard diet, and 30 mice were randomly divided into 6 groups (N = 5). Compound B14 was dissolved in saline and administered at doses of 10, 20, or 40 mg/kg. APP/PS1 male mice were grown until 6 months of age, and then injected intraperitoneally with compound B14 every other day for 60 days. Behavioral experiments were then conducted, and tissue specimens were collected for biochemical analysis.
The mice were sacrificed, with their brains and organs isolated and embedded in paraffin. The brains and organs were then sectioned into 6 μm thin slices. These slices were subjected to H&E or Nissl staining (Servicebio, Guangzhou, China). The stained sections were subsequently imaged and analyzed by using microscopy.
Figure S11. […]

[3] = test system: APP/PS1 transgenic mice; test: Novel object recognition (NOR); format: in vivo; settings: B14 10, 20, 40 mg/kg i.p. every other day
Text: as §2, with “APP/PS1 male mice were grown until 6 months of age, and then injected intraperitoneally with compound B14 every other day for 60 days. Behavioral experiments were then conducted, and tissue specimens were collected for biochemical analysis.” left out
The spatial memory and learning abilities of the mice were assessed using Morris water maze (MWM), novel object recognition (NOR) and nesting experiments (NBT). The anxiety and depressive behaviors were evaluated through the open field test (OFT) and elevated plus maze (EPM). […]
The novel object recognition (NOR) test evaluates mice's memory for familiar objects and their exploration of novel objects. […] The time spent exploring each object was recorded. The mice's learning and memory abilities were assessed by calculating the preference index (PI) using the formula PI = tB / (tA1 + tB).

[4] = test system: BCL-2 promoter C-rich sequence; test: EMSA of BCL-2 i-motif formation; format: binding; settings: pH 6.2; 1, 5, 10 eq
Protocol: Figure S5. ESI-MS, UV, CD, and EMSA experiments were performed to examine the effect of B14 on BCL-2 promoter i-motif and G-quadruplex. (A) ESI-MS experiment for oligomer BCL-2 G4 alone, which was annealed in 1 × BPES buffer at pH 7.4. (B) ESI-MS experiment for above oligomer BCL-2 G4 with addition of B14 in 1 × BPES buffer at pH 7.4. (C-D) TO displacement with increasing amount of oligomer BCL-2 i-motif annealed in 1 X BPES buffer at pH 5.5 in the presence of 20 equivalents of B14 or A22. (E) EMSA experiment was performed for the effect of B14 on inducing BCL-2 i-motif formation. The lanes from left to right were as follow: BCL-2 i-motif alone at pH 5.5; BCL-2 i-motif alone at pH 6.2; BCL-2 i-motif plus 1 eq B14 at pH 6.2; BCL-2 i-motif plus 5 eq B14 at pH 6.2; BCL-2 i-motif plus 10 eq B14 at pH 6.2. (F) CD experiment was performed to study the interaction of B14 or A22 with BCL-2 promoter i-motif.
The DNA oligonucleotides were diluted to 5 μM with 1 × BPES buffer at pH 5.5 or pH 6.2, and different equivalents of compound were added. The mixtures were annealed at 95 °C for 10 min, gradually cooled to room temperature, and incubated at 4 °C overnight. Electrophoresis was carried out using 20% acrylamide Native PAGE (pH 6.4) with 1 × Tris-borate-EDTA (TBE) as running buffer (pH 6.4) at 80 V for 7 h at 4 °C. The gels were then silver-stained and photographed.

[5] = test system: BCL-2(G4) (DNA, G4) AGGGGCGGGCGCGGGAGGAAGGGGGCGGGAGCGGGGCTG; test: ESI-MS; settings: K+ 100 mM KCl plus potassium phosphate; BPES buffer, pH 7.4; no adduct peak
[6] = test system: BCL-2 promoter i-motif; test: TO displacement assay, BCL-2 i-motif; format: binding; settings: BPES buffer pH 5.5
Protocol: Figure S4. TO displacement and UV titration experiments were performed to examine the effects of B14 and A22 on BCL-2 promoter i-motif. (A-B) TO displacement was performed on BCL-2 promoter i-motif annealed in 1XBPES buffer at pH 5.5 with increasing amount of B14 and A22. (C) The above relative TO displacement ratio were statistically analyzed.
DNA oligonucleotides were diluted to 1 μM with 1 × PBES buffer at pH 5.5, annealed at 95 °C for 10 min, cooled to room temperature, and stored at 4 °C for future use. TO dye (1 μM) was added to the DNA solution followed with incubation for 1 h. The spectra of 100 μL mixture with addition of different equivalent compounds at 25 °C were recorded based on fluorescence emission (λex = 480 nm).
TO displacement ratio (%) = (F0 − FC) / (F0 − FB) * 100.
F0 and FC were the fluorescence intensity of TO at 536 nm with DNA before and after adding compounds, respectively. FB was the fluorescence intensity of TO at 536 nm with buffer only.

T1 sequence (P05067 672-713 limits assumed): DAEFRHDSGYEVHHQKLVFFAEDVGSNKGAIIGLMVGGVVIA

## O=C(CCN1CCOCC1)Nc1ccc2c(c1)c(=O)c1cc(NC(=O)CCN3CCOCC3)ccc1n2-c1ccc2occc2c1 [Compound B14]
[1]
  CD signal intensity of Aβ1-42: much decreased
[2]
  histopathology of heart, liver, spleen, lungs, kidney: no significant detrimental effect for these organs
[3]
  times to touch new objects and index of preference (NOR): significantly increased
[4]
  i-motif migration band (EMSA): could induce BCL-2 i-motif formation in a dose-dependent manner
[5]
  binding: no
[6]
  Relative TO displacement ratio: 65% and 65.7%
